Experimental findings from patent US12473295B2, “Substituted straight chain spiro derivatives” (Janssen Pharmaceutica NV, priority 2019, dated 2025) are described below.

Structures can show the parent of a compound that is named as a salt.

One series has as its system KO-52 cells. The series can be described thus: Proliferation assay (spheroid growth, 8 days), KO-52 control cell line. The series is classed as cell-based, human. As to conditions: Homo sapiens, […], read-out: spheroid assay_OneTime KO-52 IC50. In outline: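 IC50 values derive from day-8 spheroid confluence, normalized between DMSO-treated wells and the highest dose of a reference compound, fitted with a variable slope. Cells grew 8 days at 37° C under a compound concentration series in 0.3% DMSO.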

Series [1] addresses menin/MLL (terbium chelate-labeled menin, FITC-MBM1 peptide) (Homo sapiens (Human), UniProt O00255). The series can be described thus: Menin/MLL homogenous time-resolved fluorescence (HTRF) assay.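 Also: IC50 from percent inhibition of HTRF signal, normalized between wells without competitor and wells with a saturating competitor that displaces FITC-MBM1 from His-tagged menin.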 The series is classed as binding. As to conditions: HTRF-30 min incubation IC50, 30 min incubation. (In general: In TR-FRET formats the signal depends on donor and acceptor labels being close together.)

The nature of series [2]: Metabolic stability in human liver microsomes. The series is classed as in vitro ADME. The following applies: human liver microsomes 0.5 mg/mL, 1 μM test compound, pH 7.4; read-out: Human LM Clint. The protocol:
(§1) 4) Metabolic Stability in Human/Mouse Liver Microsomes
(§2) The objective of this study is to measure in vitro metabolic stability of test compound(s) in human and mouse liver microsomes and provide quantitative information on the rate of metabolic turnover (i.e. determination of the apparent intrinsic clearance of test).
(§3) Test items were prepared at a stock concentration of 10 mM in DMSO. For determination of metabolic turnover, a final working solution was prepared by adding 2 μL of 10 mM DMSO stock solution for test compound or positive control compounds to 198 μL of acetonitrile (100 μM final concentration).
(§4) Incubations were performed as follows: First, liver microsomes were thawed on ice and a master solution containing liver microsomes in 100 mM PBS (phosphate-buffered saline) at pH 7.4 is prepared. Next, the liver microsomes solution was added to the incubation plates and 10 mM NADPH (Nicotinamide-adenine dinucleotide phosphate) was added (MW: 833.4 g/mol; Roche Diagnostics GmbH, Germany. Dissolved in phosphate buffer (100 mmol/L, pH 7.4)). The mixture was mixed for 10 seconds and pre-warmed in the incubation plate at 37° C. for 10 minutes. The metabolic reaction was initiated with the addition of 5 μL of the 100 μM working solution for test compound or positive control compounds to incubation plate (final test item concentration=1 μM). The reaction final mixture should contain 1 mM NADPH, 0.5 mg/mL microsomes protein and 1 μM test compound or positive control compound in 100 mM PBS at pH 7.4. The percentage of organic solvent in incubation mixture is 1% with DMSO ≤0.02%.
(§5) The reaction was quenched by transferring 50 μL of the incubated mixture at selected time points into the quenching plate containing 200 μL of cold methanol. After sampling of all the timepoints the quenching plate was centrifuged at 4000 rpm for 40 minutes to precipitate protein. A total of 90 μL of the supernatant was transferred to an analysis plate and ultra-pure H2O water is added into each well for LC/MS/MS analysis. All incubations and analysis were performed in duplicate.
(§6) All calculations were carried out using Microsoft Excel. The slope value, k, was determined by linear regression of the natural logarithm of the remaining percentage of the parent drug vs. incubation time curve.
(§7) The in vitro half-life (in vitro tin) was determined from the slope value: in vitro t1/2=−(0.693/k)
(§8) Conversion of the in vitro tin (in min) into the in vitro intrinsic clearance (in vitro CLint, in μL/min/mg proteins) was done using the following equation: […]
On the technique in general: Microsomes from liver hold many membrane-bound enzymes, among them those of drug oxidation.

Another series deals with MOLM14 cells. The series can be described thus: Proliferation assay (spheroid growth, 8 days), MOLM14.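 Also: spheroid size read as confluence by live-cell imaging, compounds added at a range of concentrations with 0.3% DMSO, DMSO-treated wells = 0%, highest reference dose = low control.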 The format is cell-based, human. The following applies: Homo sapiens, MOLM-14, […], MOLM14, 8 days; read-out: spheroid assay_OneTime MOLM14 IC50.
For the next series, the system named is MEIS1 mRNA. The experiment in a line: MEIS1 mRNA expression assay (Quantigene Singleplex) in MOLM14 cells.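 Also: MEIS1 transcript levels read by probe hybridization and normalized to RPL28 mRNA, with IC50 fitted to fold changes across a rising compound concentration series.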 The series is classed as cell-based, human. As to conditions: Homo sapiens, MOLM-14, 48 h, 48 hours incubation.
A short description of series [3]: Metabolic stability in mouse liver microsomes. The series is classed as in vitro ADME. The following applies: mouse liver microsomes 0.5 mg/mL, 1 μM test compound, pH 7.4; read-out: Mouse LM Clint. The protocol: as §1, §2, §3, §4, §5, §6, §7, §8

Chain of menin/MLL (terbium chelate-labeled menin, FITC-MBM1 peptide) (O00255 other isoform, or with tags, fused parts or gaps): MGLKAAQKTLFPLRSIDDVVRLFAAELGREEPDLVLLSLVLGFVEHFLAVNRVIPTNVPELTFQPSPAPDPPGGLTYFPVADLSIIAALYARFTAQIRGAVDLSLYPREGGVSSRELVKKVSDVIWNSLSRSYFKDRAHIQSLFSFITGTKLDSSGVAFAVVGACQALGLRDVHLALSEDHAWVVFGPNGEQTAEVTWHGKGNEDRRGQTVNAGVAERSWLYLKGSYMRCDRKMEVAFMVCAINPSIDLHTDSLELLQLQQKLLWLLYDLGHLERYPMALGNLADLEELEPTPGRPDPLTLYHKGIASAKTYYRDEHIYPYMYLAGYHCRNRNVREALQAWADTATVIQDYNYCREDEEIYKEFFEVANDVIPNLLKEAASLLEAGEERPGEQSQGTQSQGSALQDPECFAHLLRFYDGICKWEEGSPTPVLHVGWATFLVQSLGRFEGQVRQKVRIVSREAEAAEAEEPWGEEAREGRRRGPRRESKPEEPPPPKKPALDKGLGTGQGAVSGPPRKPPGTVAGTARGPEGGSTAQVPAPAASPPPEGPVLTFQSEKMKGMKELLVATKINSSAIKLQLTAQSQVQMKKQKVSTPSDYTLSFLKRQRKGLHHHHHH

For orientation: IC50 means the concentration that inhibits the measured activity by half. `CC(C)[C@@H](CCC(C)(C)N)N1CC2(CCN(c3ncnnc3Oc3ccc(F)cc3-c3cncnc3C3CC3)C2)C1` (single isomer, unassigned) [Compound 37, (*R)-5-(6-(6-(2-(4-cyclopropylpyrimidin-5-yl)-4-fluorophenoxy)-1,2,4-triazin-5-yl)-2,6-diazaspiro[3.4]octan-2-yl)-2,6-dimethylheptan-2-amine]: the concentration for half-maximal inhibition (IC50) in the series on KO-52 cells was greater than 15000 nM; in series [1], 0.12 nM; in the series on MOLM14 cells, 40 nM; in the series on MEIS1 mRNA, 39 nM. The microsomal CLint at 1 μM in series [2] and in series [3] was less than 7.5 µL/min/mg each time.
As to `CCN(C(=O)c1cc(F)ccc1Oc1nncnc1N1CCC2(C1)CN([C@H](CCCNCCC(F)F)C(C)C)C2)C(C)C.O=C(O)/C=C/C(=O)O` [Compound 114, (R)-2-(5-(2-(6-((3,3-difluoropropyl)amino)-2-methylhexan-3-yl)-2,6-diazaspiro[3.4]octan-6-yl)-1,2,4-triazin-6-yl)oxy)-N-ethyl-5-fluoro-N-isopropylbenzamide fumarate], the half-maximal inhibitory concentration (IC50) turned out to be 1690 nM with KO-52 cells, 0.05 nM in series [1], 14 nM in the series with MOLM14 cells and 22 nM in the series on MEIS1 mRNA. Moreover, the microsomal CLint at 1 μM in series [2] was found to be 26 µL/min/mg; in series [3], 15 µL/min/mg.
With `COCCNCCC[C@H](C(C)C)N1CC2(CCN(c3ncnnc3Oc3ccc(F)cc3C(=O)N(C(C)C)C(C)C)C2)C1` (single isomer, unassigned) [Compound 99, (*R)-5-fluoro-N,N-isopropyl-2-((5-(2-(6-((2-methoxyethyl)amino)-2-methylhexan-3-yl)-2,6-diazaspiro[3.4]octan-6-yl)-1,2,4-triazin-6-yl)oxy)benzamide oxalate], the IC50 amounted to 11500 nM in the series on KO-52 cells, 0.2 nM in series [1], 8.5 nM with MOLM14 cells and 26 nM in the series with MEIS1 mRNA. In addition, the microsomal CLint at 1 μM in series [2] was 27 µL/min/mg; in series [3] it was 13 µL/min/mg.
As to `CCN(C(=O)c1cc(F)ccc1Oc1nncnc1N1CCC2(C1)CN([C@H](CCCN[C@H](C)COC)C(C)C)C2)C(C)C.O=C(O)/C=C/C(=O)O` [Compound 112, N-ethyl-5-fluoro-N-isopropyl-2-(5(2-((R)-6-(((R)-1-methoxypropan-2-yl)amino)-2-methylhexan-3-yl)-2,6-diazaspiro[3.4]octan-6-yl)-1,2,4-triazin-6-yl)oxy)benzamide fumarate], the IC50 with KO-52 cells was greater than 15000 nM; in series [1], 0.049 nM; in the series on MOLM14 cells it was 9.8 nM; with MEIS1 mRNA it was 9 nM. The microsomal CLint at 1 μM is 17 µL/min/mg in series [2] and less than 7.5 µL/min/mg in series [3].
Regarding `CCN(C(=O)c1cc(F)ccc1Oc1nncnc1N1CCC2(C1)CN([C@H](CCCNCC(OC)OC)C(C)C)C2)C(C)C.O=C(O)/C=C/C(=O)O` [Compound 104, (R)-2-((5-(2-(6-((2,2-dimethoxyethyl)amino)-2-methylhexan-3-yl)-2,6-diazaspiro[3.4]octan-6-yl)-1,2,4-triazin-6-yl)oxy)-N-ethyl-5-fluoro-N-isopropylbenzamide fumarate], the IC50 in the series on KO-52 cells was determined as 10700 nM; in series [1], 0.074 nM; in the series on MOLM14 cells it was 6.7 nM; in the series with MEIS1 mRNA, 15 nM. Also, the microsomal CLint at 1 μM in series [2] is 19 µL/min/mg; in series [3], less than 7.5 µL/min/mg.
As to `CCN(C(=O)c1cc(F)ccc1Oc1nncnc1N1CCC2(C1)CN([C@H](CCCN(C)CCNC(C)=O)C(C)C)C2)C(C)C.O=C(O)/C=C/C(=O)O` [Compound 245, (R)-2-((5-(2-(6-((2-acetamidoethyl)(methyl)amino)-2-methylhexan-3-yl)-2,6-diazaspiro[3.4]octan-6-yl)-1,2,4-triazin-6-yl)oxy)-N-ethyl-5-fluoro-N-isopropylbenzamide fumarate], the IC50 in the series with KO-52 cells was greater than 15000 nM; in series [1], 0.26 nM; in the series on MOLM14 cells, 73 nM; with MEIS1 mRNA it was 140 nM. The microsomal CLint at 1 μM is 18 µL/min/mg in series [2] and less than 7.5 µL/min/mg in series [3].
As for `CCN(C(=O)c1cc(F)ccc1Oc1nncnc1N1CCC2(C1)CN([C@H](CCCN)C(C)C)C2)C(C)C` [Compound 1, (R)-2-((5-(2-(6-amino-2-methylhexan-3-yl)-2,6-diazaspiro[3.4]octan-6-yl)-1,2,4-triazin-6-yl)oxy)-N-ethyl-5-fluoro-N-isopropylbenzamide formate], the concentration for half-maximal inhibition (IC50) is greater than 15000 nM in the series with KO-52 cells, 0.13 nM in series [1], 230 nM with MOLM14 cells and 75 nM in the series with MEIS1 mRNA. Moreover, the microsomal CLint at 1 μM is less than 7.5 µL/min/mg in series [2] and 21 µL/min/mg in series [3].
In the case of `CCN(C(=O)c1cc(F)ccc1Oc1nncnc1N1CCC2(C1)CN([C@H](CCCN(C)CCC(=O)N(C)C)C(C)C)C2)C(C)C` [Compound 246, (R)-2-((5-(2-(6-((3-(dimethylamino)-3-oxopropyl)(methyl)amino)-2-methylhexan-3-yl)-2,6-diazaspiro[3.4]octan-6-yl)-1,2,4-triazin-6-yl)oxy)-N-ethyl-5-fluoro-N-isopropylbenzamide formate], the IC50 was greater than 15000 nM in the series on KO-52 cells, 0.063 nM in series [1], 60 nM in the series on MOLM14 cells and 180 nM in the series with MEIS1 mRNA.
